Key:
vCap Cell = experiment: vCap cell growth inhibition, CellTiter-Glo, 72 h; assay type: cell-based; conditions: vCap cells, 72 h culture
Outline: (§1)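 Cells seeded at 5×10^3/well overnight in RPMI-1640/10% FBS, then exposed to compound (0.5% DMSO final) for 72 h at 37 °C.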

22Rv1 Cell = experiment: 22RV1 cell growth inhibition, CellTiter-Glo, 72 h; assay type: cell-based; conditions: 22RV1 cells, 72 h culture
Outline: as §1

SMILES	IC50 (vCap Cell; Homo sapiens, VCaP, 72 h) [nM]	IC50 (22Rv1 Cell; Homo sapiens, 22Rv1, 72 h) [nM]	IC50 (vCap Cell) [nM]	IC50 (22Rv1 Cell) [nM]
CNC(=O)N1CCc2cc(C3CCC(O)CC3)cc(N3CCCc4cc(-c5cnn(C)c5)c(C(F)F)cc43)c2C1 (stereo not drawn) [Compound M001180]	< 1000	> 1000	–	–
CNC(=O)N1CCc2cc([C@H]3CC[C@H](O)CC3)cc(N3CCCc4cc(-c5cnn(C)c5)c(C(F)F)cc43)c2C1 [Compound M001181]	> 1000	> 1000	–	–
CNC(=O)N1CCc2cc(C3CCOCC3)cc(N3CCCc4cc(-c5cnn(C)c5)c(C(F)F)cc43)c2C1 [Compound M001184]	< 1000	> 1000	–	–
CCN1CCC(c2cc3c(c(N4CCCc5cc(-c6cnn(C)c6)c(C(F)F)cc54)c2)CN(C(=O)NC)CC3)CC1=O (stereo not drawn) [Compound M001186]	< 1000	< 1000	–	–
CNC(=O)N1CCc2cc(C3CCN(CCOC)C(=O)C3)cc(N3CCCc4cc(-c5cnn(C)c5)c(C(F)F)cc43)c2C1 (stereo not drawn) [Compound M001188]	< 1000	< 1000	–	–
CCN1CCC(c2cc3c(c(N4CCCc5cc(-c6cnn(C)c6)c(C(F)F)cc54)c2)CN(C(C)=O)C3)CC1=O (stereo not drawn) [Compound M001189]	< 1000	< 1000	–	–
CNC(=O)N1Cc2cc([C@H]3CC[C@@H](O)CC3)cc(N3CCCc4cc(-c5cnn(C)c5)c(C(F)F)cc43)c2C1 [Compound M001192]	> 1000	> 1000	–	–
CNC(=O)N1Cc2cc([C@H]3CC[C@H](O)CC3)cc(N3CCCc4cc(-c5cnn(C)c5)c(C(F)F)cc43)c2C1 [Compound M001193]	> 1000	> 1000	–	–
CC(=O)N1Cc2cc([C@H]3CC[C@H](O)CC3)cc(N3CCCc4cc(-c5cnn(C)c5)c(C(F)F)cc43)c2C1 [Compound M001194]	< 1000	> 1000	–	–
CC(=O)N1Cc2cc([C@H]3CC[C@@H](O)CC3)cc(N3CCCc4cc(-c5cnn(C)c5)c(C(F)F)cc43)c2C1 [Compound M001195]	< 1000	> 1000	–	–
COC1CCC(c2cc3c(c(N4CCCc5cc(-c6cnn(C)c6)c(C(F)F)cc54)c2)CN(C(C)=O)CC3)CC1 (stereo not drawn) [Compound M001196]	> 1000	> 1000	–	–
COC1CCC(c2cc3c(c(N4CCCc5cc(-c6cnn(C)c6)c(C(F)F)cc54)c2)CN(C(C)=O)CC3)CC1 (stereo not drawn) [Compound M001197]	–	–	> 1000	> 1000
CNC(=O)N1CCc2cc(C3CCC(OC)CC3)cc(N3CCCc4cc(-c5cnn(C)c5)c(C(F)F)cc43)c2C1 (stereo not drawn) [Compound M001198]	> 1000	> 1000	–	–
CNC(=O)N1CCc2cc(C3CCC(OC)CC3)cc(N3CCCc4cc(-c5cnn(C)c5)c(C(F)F)cc43)c2C1 (stereo not drawn) [Compound M001199]	–	–	> 1000	> 1000
CNC(=O)N1Cc2cc(C3CCC(OC)CC3)cc(N3CCCc4cc(-c5cnn(C)c5)c(C(F)F)cc43)c2C1 (stereo not drawn) [Compound M001200]	> 1000	> 1000	–	–
COC(=O)N1CCc2cc(Cl)cc(N3CCCc4cc(-c5cnn(C)c5)c(C(F)F)cc43)c2C1 [Compound M001201]	> 1000	> 1000	–	–
COC(=O)N1Cc2cc(C3CCC(OC)CC3)cc(N3CCCc4cc(-c5cnn(C)c5)c(C(F)F)cc43)c2C1 (stereo not drawn) [Compound M001203]	> 1000	> 1000	–	–
COC(=O)N1Cc2cc(C3CCC(OC)CC3)cc(N3CCCc4cc(-c5cnn(C)c5)c(C(F)F)cc43)c2C1 (stereo not drawn) [Compound M001204]	–	–	> 1000	> 1000
CC(=O)N1CCc2cccc(N3CCCc4cc(-c5cnn(C)c5)c(C(F)F)cc43)c2C1 [Compound M001207]	> 1000	> 1000	–	–
CC(=O)N1CCc2cc(Cl)cc(N3CCCc4cc(-c5cnn(C)c5)c(C(F)F)cc43)c2C1 [Compound M001208]	> 1000	> 1000	–	–
CNC(=O)N1CCc2cc(Cl)cc(N3CCCc4cc(-c5cnn(C)c5)c(C(F)F)cc43)c2C1 [Compound M001209]	> 1000	> 1000	–	–
COC(=O)N1CCCc2cccc(N3CCCc4cc(-c5cnn(C)c5)c(C(F)F)cc43)c2C1 [Compound M001210]	> 1000	> 1000	–	–
CNC(=O)N1CCCc2cccc(N3CCCc4cc(-c5cnn(C)c5)c(C(F)F)cc43)c2C1 [Compound M001211]	> 1000	> 1000	–	–
CC(=O)N1CCCc2cccc(N3CCCc4cc(-c5cnn(C)c5)c(C(F)F)cc43)c2C1 [Compound M001212]	> 1000	> 1000	–	–

SMILES	IC50 (vCap Cell; Homo sapiens, VCaP, 72 h) [nM]	IC50 (22Rv1 Cell; Homo sapiens, 22Rv1, 72 h) [nM]	IC50 (vCap Cell) [nM]	IC50 (22Rv1 Cell) [nM]
Cn1cc(-c2cc3c(cc2C(F)F)N(c2cccc4c2CN(C(N)=O)CCC4)CCC3)cn1 [Compound M001213]	> 1000	> 1000	–	–
Cn1cc(-c2cc3c(cc2C(F)F)N(c2cccc4c2CN(C(=O)C2CC2)CCC4)CCC3)cn1 [Compound M001214]	> 1000	> 1000	–	–
Cn1cc(-c2cc3c(cc2C(F)F)N(c2cccc4c2CNC(=O)CC4)CCC3)cn1 [Compound M001215, 9-[7-(difluoromethyl)-6-(1-methylpyrazol-4-yl)-3,4-dihydro-2H-quinolin-1-yl]-1,2,4,5-tetrahydro-2-benzazepin-3-one]	> 1000	> 1000	–	–
CC(=O)N1Cc2cc(C3CCNC(=O)C3)cc(N3CCCc4cc(-c5cnn(C)c5)ccc43)c2C1 (stereo not drawn) [Compound M001218]	> 1000	> 1000	–	–
CC(=O)N1Cc2cc(C3CCNC(=O)C3)cc(N3CCCc4cc(-c5cnn(C)c5)c(C5CC5)cc43)c2C1 (stereo not drawn) [Compound M001219, 4-{2-acetyl-7-[7-cyclopropyl-6-(1-methylpyrazol-4-yl)-3,4-dihydro-2H-quinolin-1-yl]-1,3-dihydroisoindol-5-yl}piperidin-2-one]	< 1000	< 1000	–	–
CCN1CC(c2cc3c(c(N4CCCc5cc(-c6cnn(C)c6)c(C(F)F)cc54)c2)CN(C(=O)NC)CC3)CCC1=O (stereo not drawn) [Compound M001221]	< 1000	< 1000	–	–
CNC(=O)N1CCc2cc(C3CCC(=O)N(CCOC)C3)cc(N3CCCc4cc(-c5cnn(C)c5)c(C(F)F)cc43)c2C1 (stereo not drawn) [Compound M001222]	< 1000	< 1000	–	–
CCN1CC(c2cc3c(c(N4CCCc5cc(-c6cnn(C)c6)c(C(F)F)cc54)c2)CN(C(C)=O)C3)CCC1=O (stereo not drawn) [Compound M001224]	< 1000	< 1000	–	–
COCCN1CC(c2cc3c(c(N4CCCc5cc(-c6cnn(C)c6)c(C(F)F)cc54)c2)CN(C(C)=O)C3)CCC1=O (stereo not drawn) [Compound M001225]	< 1000	> 1000	–	–
CCOC(=O)N1CCc2cc(Cl)cc(N3CCCc4cc(-c5cnn(C)c5)c(C(F)F)cc43)c2C1 [Compound M001228]	> 1000	> 1000	–	–
CCNC(=O)N1CCc2cc(Cl)cc(N3CCCc4cc(-c5cnn(C)c5)c(C(F)F)cc43)c2C1 [Compound M001229]	> 1000	> 1000	–	–
CNC(=O)N1CCc2cc(C3CCC(=O)N(CC(C)(C)O)C3)cc(N3CCCc4cc(-c5cnn(C)c5)c(C(F)F)cc43)c2C1 (stereo not drawn) [Compound M001230]	< 1000	< 1000	–	–
CC(=O)N1Cc2cc(C3CCC(=O)N(CC(C)(C)O)C3)cc(N3CCCc4cc(-c5cnn(C)c5)c(C(F)F)cc43)c2C1 (stereo not drawn) [Compound M001231]	< 1000	< 1000	–	–
CNC(=O)N1CCc2cc([C@H]3CCC(=O)N(C)C3)cc(N3CCCc4cc(-c5cnn(C)c5)c(C(F)F)cc43)c2C1 [Compound M001234]	< 1000	< 1000	–	–
CNC(=O)N1CCc2cc([C@@H]3CCC(=O)N(C)C3)cc(N3CCCc4cc(-c5cnn(C)c5)c(C(F)F)cc43)c2C1 [Compound M001235]	< 1000	< 1000	–	–
Cn1cc(-c2cc3c(cc2C(F)F)N(c2cccc4c2NC(=O)CCC4)CCC3)cn1 [Compound M001236, 9-[7-(difluoromethyl)-6-(1-methylpyrazol-4-yl)-3,4-dihydro-2H-quinolin-1-yl]-1,3,4,5-tetrahydro-1-benzazepin-2-one]	> 1000	> 1000	–	–
CNC(=O)N1CCc2cc(-c3ccc(=O)n(C)c3)cc(Nc3cc(C(F)F)c(-c4cnn(C)c4)cc3F)c2C1 [Compound M001239, 8-((5-(difluoromethyl)-2-fluoro-4-(1-methyl-1H-pyrazol-4-yl)phenyl)amino)-N-methyl-6-(1-methyl-6-oxo-1,6-dihydropyridin-3-yl)-3,4-dihydroisoquinoline-2(1H)-carboxamide]	< 1000	< 1000	–	–
CNC(=O)N1Cc2nc(C3CCOCC3)nc(N3CCCc4cc(-c5cnn(C)c5)c(C(F)F)cc43)c2C1 [Compound M001244]	> 1000	> 1000	–	–
CC(=O)N1Cc2cc(C3CNC(=O)OC3)cc(N3CCCc4cc(-c5cnn(C)c5)c(C(F)F)cc43)c2C1 (stereo not drawn) [Compound M001246]	> 1000	> 1000	–	–
CC(=O)N1Cc2cc(C3CCN(CC(C)O)C(=O)C3)cc(N3CCCc4cc(-c5cnn(C)c5)c(C(F)F)cc43)c2C1 (stereo not drawn) [Compound M001249]	–	–	< 1000	< 1000
CC(=O)N1Cc2cc(C3CCN(CC(F)(F)F)C(=O)C3)cc(N3CCCc4cc(-c5cnn(C)c5)c(C(F)F)cc43)c2C1 (stereo not drawn) [Compound M001252]	< 1000	< 1000	–	–
CNC(=O)N1CCc2cc(C3CCN(CC(F)(F)F)C(=O)C3)cc(N3CCCc4cc(-c5cnn(C)c5)c(C(F)F)cc43)c2C1 (stereo not drawn) [Compound M001253]	< 1000	< 1000	–	–
CCN1CCC(c2cc3c(c(N4CCCc5cc(-c6cnn(C)c6)c(C(F)F)cc54)c2)CN(C(=O)OC)CCC3)CC1=O (stereo not drawn) [Compound M001260, methyl 9-(7-(difluoromethyl)-6-(1-methyl-1H-pyrazol-4-yl)-3,4-dihydroquinolin-1(2H)-yl)-7-(1-ethyl-2-oxopiperidin-4-yl)-1,3,4,5-tetrahydro-2H-benzo[c]azepine-2-carboxylate]	> 1000	> 1000	–	–
CCN1CCC(c2cc3c(c(N4CCCc5cc(-c6cnn(C)c6)c(C(F)F)cc54)c2)CN(C(N)=O)CCC3)CC1=O (stereo not drawn) [Compound M001261]	> 1000	> 1000	–	–

Source: patent US20240109868A1, “EP300/CBP MODULATOR, PREPARATION METHOD THEREFOR AND USE THEREOF” (Miracure Biotechnology Limited, priority 2022, published 2024)
